According to patent publication US9707233B2, “Heterocyclylamines as PI3K inhibitors” (Incyte Corporation, priority 2011, dated 2017):
Where a name gives a salt, the structure may show the parent alone.

Target: PI3Kδ (p110δ/p85α) (Homo sapiens (Human), UniProt O00329)
Test: PI3Kδ scintillation proximity assay (Example A3)
Format: biochemical
Settings: 20 μM ATP, 20 μM PIP2, 4 nM PI3Kδ; read-out: PI3Kδ SPA IC50
How it was run: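 Human PI3Kδ (p110δ/p85α, 4 nM) with 20 μM PIP2 and 20 μM ATP plus [γ-33P]ATP in 20 mM MOPS pH 6.7, 10 mM MgCl2, 5 mM DTT, 0.03% CHAPS, 0.5% DMSO, room temperature. Reaction stopped with EDTA/excess ATP; product captured on WGA SPA beads and counted. IC50 from percent control activity vs log inhibitor.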

Chain of PI3Kδ (p110δ/p85α) (O00329 whole entry): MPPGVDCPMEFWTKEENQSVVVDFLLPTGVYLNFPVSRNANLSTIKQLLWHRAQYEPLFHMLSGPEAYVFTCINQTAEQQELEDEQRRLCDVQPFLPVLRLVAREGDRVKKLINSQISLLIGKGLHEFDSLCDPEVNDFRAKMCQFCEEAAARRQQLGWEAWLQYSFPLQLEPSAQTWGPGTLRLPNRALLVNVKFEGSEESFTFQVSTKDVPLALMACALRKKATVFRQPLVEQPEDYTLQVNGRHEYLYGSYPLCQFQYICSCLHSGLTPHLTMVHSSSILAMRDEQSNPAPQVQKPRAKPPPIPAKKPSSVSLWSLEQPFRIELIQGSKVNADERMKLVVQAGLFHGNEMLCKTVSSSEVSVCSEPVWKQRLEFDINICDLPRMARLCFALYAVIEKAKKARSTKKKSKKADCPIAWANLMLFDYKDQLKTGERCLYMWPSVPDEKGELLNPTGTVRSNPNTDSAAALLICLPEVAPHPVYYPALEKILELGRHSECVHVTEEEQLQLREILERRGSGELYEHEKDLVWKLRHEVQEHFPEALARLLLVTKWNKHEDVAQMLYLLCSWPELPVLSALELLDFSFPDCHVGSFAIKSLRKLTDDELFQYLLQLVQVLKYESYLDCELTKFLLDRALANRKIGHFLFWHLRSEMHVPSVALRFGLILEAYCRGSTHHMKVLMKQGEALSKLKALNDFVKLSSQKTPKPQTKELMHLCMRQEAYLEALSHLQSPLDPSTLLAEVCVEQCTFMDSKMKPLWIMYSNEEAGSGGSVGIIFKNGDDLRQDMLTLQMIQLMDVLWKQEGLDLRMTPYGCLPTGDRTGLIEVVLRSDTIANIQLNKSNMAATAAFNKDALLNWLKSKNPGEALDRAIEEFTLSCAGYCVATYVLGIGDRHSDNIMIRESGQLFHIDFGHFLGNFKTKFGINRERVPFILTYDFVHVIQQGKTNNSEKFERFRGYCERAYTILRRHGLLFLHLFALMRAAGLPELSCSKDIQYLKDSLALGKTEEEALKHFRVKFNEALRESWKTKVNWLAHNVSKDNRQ
Chain of PI3Kδ (p110δ/p85α) (P27986 whole entry partner): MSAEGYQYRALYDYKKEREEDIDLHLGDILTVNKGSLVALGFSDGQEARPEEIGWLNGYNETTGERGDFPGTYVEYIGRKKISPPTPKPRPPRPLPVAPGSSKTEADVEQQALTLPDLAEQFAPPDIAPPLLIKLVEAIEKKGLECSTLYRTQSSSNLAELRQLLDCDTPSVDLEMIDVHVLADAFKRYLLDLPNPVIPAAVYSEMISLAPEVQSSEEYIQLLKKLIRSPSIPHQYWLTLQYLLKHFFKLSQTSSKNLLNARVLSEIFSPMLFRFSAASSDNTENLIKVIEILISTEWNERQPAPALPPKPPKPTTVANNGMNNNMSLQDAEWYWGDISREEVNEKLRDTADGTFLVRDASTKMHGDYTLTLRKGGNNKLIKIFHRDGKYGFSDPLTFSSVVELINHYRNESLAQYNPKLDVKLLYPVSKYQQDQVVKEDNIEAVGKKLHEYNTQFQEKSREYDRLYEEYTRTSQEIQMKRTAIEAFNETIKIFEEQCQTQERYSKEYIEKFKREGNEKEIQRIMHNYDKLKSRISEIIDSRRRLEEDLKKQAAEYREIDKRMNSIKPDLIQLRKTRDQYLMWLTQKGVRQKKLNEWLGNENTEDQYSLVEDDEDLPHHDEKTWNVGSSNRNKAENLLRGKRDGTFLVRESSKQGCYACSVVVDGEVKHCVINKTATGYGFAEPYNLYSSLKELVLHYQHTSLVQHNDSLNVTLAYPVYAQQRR

Structure (SMILES) | IC50 [nM]
CCOc1c(C(C)n2nc(C)c3c(N)ncnc32)cc(Cl)c(C#N)c1C1CNC(=O)C1 (single isomer, unassigned) [Example 352, 4-[1-(4-amino-3-methyl-1H-pyrazolo[3,4-d]pyrimidin-1-yl)ethyl]-6-chloro-3-ethoxy-2-(5-oxopyrrolidin-3-yl)benzonitrile] | ≤ 10
CCOc1c(C(C)n2nc(C)c3c(N)ncnc32)cc(Cl)c(F)c1C1COC(=O)N1 (single isomer, unassigned) [Example 354, 4-{3-[1-(4-amino-3-methyl-1H-pyrazolo[3,4-d]pyrimidin-1-yl)ethyl]-5-chloro-2-ethoxy-6-fluorophenyl}-1,3-oxazolidin-2-one] | ≤ 10
CCOc1c(C(C)n2nc(C)c3c(N)ncnc32)cc(Cl)c(F)c1C1CNC(=O)O1 (single isomer, unassigned) [Example 355, 5-{3-[1-(4-amino-3-methyl-1H-pyrazolo[3,4-d]pyrimidin-1-yl)ethyl]-5-chloro-2-ethoxy-6-fluorophenyl}-1,3-oxazolidin-2-one] | 50 to 200
CCOc1c(C(C)n2nc(C)c3c(N)ncnc32)cc(Cl)c(F)c1C1CNC(=O)O1 (single isomer, unassigned) [Example 356, 5-{3-[1-(4-amino-3-methyl-1H-pyrazolo[3,4-d]pyrimidin-1-yl)ethyl]-5-chloro-2-ethoxy-6-fluorophenyl}-1,3-oxazolidin-2-one] | 50 to 200
CCOc1c(C(C)n2nc(C)c3c(N)ncnc32)cc(C)c(C#N)c1C1CN(CC(C)O)C1 (stereo in doubt) [Example 326, 4-[1-(4-amino-3-methyl-1H-pyrazolo[3,4-d]pyrimidin-1-yl)ethyl]-3-ethoxy-2-{1-[(2S)-2-hydroxypropyl]azetidin-3-yl}-6-methylbenzonitrile] | ≤ 10
CCOc1c(C(C)n2nc(C)c3c(N)ncnc32)cc(Cl)c(C#N)c1C1CNC(=O)O1 (stereo not drawn) [323 (2nd peak), 4-[1-(4-amino-3-methyl-1H-pyrazolo[3,4-d]pyrimidin-1-yl)ethyl]-6-chloro-3-ethoxy-2-(2-oxo-1,3-oxazolidin-5-yl)benzonitrile] | ≤ 10
CCOc1c(C(C)n2nc(-c3ccn(C)n3)c3c(N)ncnc32)cc(Cl)c(C)c1-c1ccc(C(=O)N(C)C)nc1 (stereo not drawn) [Example 50, 5-(3-{1-[4-amino-3-(1-methyl-1H-pyrazol-3-yl)-1H-pyrazolo[3,4-d]pyrimidin-1-yl]ethyl}-5-chloro-2-ethoxy-6-methylphenyl)-N,N-dimethylpyridine-2-carboxamide bis(trifluoroacetate)] | ≤ 10
COc1c(C(C)n2nc(C)c3c(N)ncnc32)cc(Cl)c(C)c1-c1cncc(C(=O)N2CC(C#N)C2)c1 (stereo not drawn) [Example 177, 1-[(5-{3-[1-(4-amino-3-methyl-1H-pyrazolo[3,4-d]pyrimidin-1-yl)ethyl]-5-chloro-2-methoxy-6-methylphenyl}pyridin-3-yl)carbonyl]azetidine-3-carbonitrile] | ≤ 10
CCOc1c(C(C)n2nc(C)c3c(N)ncnc32)cc(Cl)c(C)c1-c1cncc(C(=O)N(C)C)c1 (stereo not drawn) [Example 196, 5-(3-(1-(4-amino-3-methyl-1H-pyrazolo[3,4-d]pyrimidin-1-yl)ethyl)-5-chloro-2-ethoxy-6-methylphenyl)-N,N-dimethylnicotinamide] | ≤ 10
CCOc1c(C(C)n2nc(C)c3c(N)ncnc32)cc(Cl)c(C)c1-c1cncc(S(C)(=O)=O)c1 (stereo not drawn) [Example 198, 1-(1-(5-chloro-2-ethoxy-4-methyl-3-(5-(methylsulfonyl)pyridin-3-yl)phenyl)ethyl)-3-methyl-1H-pyrazolo[3,4-d]pyrimidin-4-amine] | ≤ 10
CCOc1c(C(C)n2nc(C)c3c(N)ncnc32)cc(Cl)c(C#N)c1C1CN(CC)C1 (stereo not drawn) [Example 214, 4-[1-(4-Amino-3-methyl-1H-pyrazolo[3,4-d]pyrimidin-1-yl)ethyl]-6-chloro-3-ethoxy-2-(1-ethylazetidin-3-yl)benzonitrile] | ≤ 10
CCOc1c(C(C)n2nc(C)c3c(N)ncnc32)cc(Cl)c(C#N)c1C1CN(CC(C)(C)O)C1 (stereo not drawn) [Example 222, 4-[1-(4-Amino-3-methyl-1H-pyrazolo[3,4-d]pyrimidin-1-yl)ethyl]-6-chloro-3-ethoxy-2-[1-(2-hydroxy-2-methylpropyl)azetidin-3-yl]benzonitrile] | ≤ 10
CCOc1c(C(C)n2nc(C)c3c(N)ncnc32)cc(Cl)c(C#N)c1C1CN(CCOC)C1 (stereo not drawn) [Example 225, 4-[1-(4-Amino-3-methyl-1H-pyrazolo[3,4-d]pyrimidin-1-yl)ethyl]-6-chloro-3-ethoxy-2-[1-(2-methoxyethyl)azetidin-3-yl]benzonitrile] | ≤ 10
CCOc1c(C(C)n2nc(C)c3c(N)ncnc32)cc(Cl)c(C#N)c1C1CN(S(C)(=O)=O)C1 (stereo not drawn) [Example 248, 4-[1-(4-Amino-3-methyl-1H-pyrazolo[3,4-d]pyrimidin-1-yl)ethyl]-6-chloro-3-ethoxy-2-[1-(methylsulfonyl)azetidin-3-yl]benzonitrile] | ≤ 10

Further lines, results first:

IC50 [nM] | Structure (SMILES)
> 500 | CCOc1c(C(C)n2nc(C)c3c(N)ncnc32)cc(Cl)c(F)c1C1CNC(=O)O1 (single isomer, unassigned) [Example 358, 5-{3-[1-(4-amino-3-methyl-1H-pyrazolo[3,4-d]pyrimidin-1-yl)ethyl]-5-chloro-2-ethoxy-6-fluorophenyl}-1,3-oxazolidin-2-one]
≤ 10 | COc1c(C(C)n2nc(C(F)F)c3c(N)ncnc32)cc(Cl)c(F)c1C1CN(C)C1 (stereo not drawn) [Example 75, 1-{1-[5-Chloro-4-fluoro-2-methoxy-3-(1-methylazetidin-3-yl)phenyl]ethyl}-3-(difluoromethyl)-1H-pyrazolo[3,4-d]pyrimidin-4-amine]
≤ 10 | COc1c(C(C)n2nc(C)c3c(N)ncnc32)cc(Cl)c(C)c1C1CN(CC(N)=O)C1 (stereo not drawn) [Example 111, 2-(3-{3-[1-(4-Amino-3-methyl-1H-pyrazolo[3,4-d]pyrimidin-1-yl)ethyl]-5-chloro-2-methoxy-6-methylphenyl}azetidin-1-yl)acetamide]
≤ 10 | COc1c(C(C)n2nc(C)c3c(N)ncnc32)cc(Cl)c(C)c1C1CN(C(=O)[C@@H](C)O)C1 (stereo partly drawn) [Example 121, (2R)-1-(3-{3-[1-(4-Amino-3-methyl-1H-pyrazolo[3,4-d]pyrimidin-1-yl)ethyl]-5-chloro-2-methoxy-6-methylphenyl}azetidin-1-yl)-1-oxopropan-2-ol trifluoroacetate]
≤ 10 | CCOc1c(C(C)n2nc(C)c3c(N)ncnc32)cc(Cl)c(F)c1C1CN(CCO)C1 (stereo not drawn) [Example 144, 2-(3-{3-[1-(4-Amino-3-methyl-1H-pyrazolo[3,4-d]pyrimidin-1-yl)ethyl]-5-chloro-2-ethoxy-6-fluorophenyl}azetidin-1-yl)ethanol]
≤ 10 | CCOc1c(C(C)n2nc(C)c3c(N)ncnc32)cc(Cl)c(F)c1C1CN(CC(N)=O)C1 (stereo not drawn) [Example 148, 2-(3-{3-[1-(4-Amino-3-methyl-1H-pyrazolo[3,4-d]pyrimidin-1-yl)ethyl]-5-chloro-2-ethoxy-6-fluorophenyl}azetidin-1-yl)acetamide]
≤ 10 | CCOc1c(C(C)n2nc(C)c3c(N)ncnc32)cc(Cl)c(C#N)c1C1CN(C(C)C)C1 (stereo not drawn) [Example 215, 4-[1-(4-Amino-3-methyl-1H-pyrazolo[3,4-d]pyrimidin-1-yl)ethyl]-6-chloro-3-ethoxy-2-(1-isopropylazetidin-3-yl)benzonitrile]
